# Test results as given in ChEMBL document CHEMBL5050834, “Cyclic trex1 inhibitors” (2021).
# Assay: Inhibition of human TREX1 exonuclease activity using labeled DNA oligonucleotide as substrate incubated for 30 mins and measured after 45 mins by fluorescence assay
row,IC50,SMILES
1,< 1000 nM,CCOC(=O)CC[C@H](C(=O)NCc1ccc(Cl)c(Cl)c1)N1CCC(CCc2ccccc2)N2C[C@H](N)C[C@H]2C1=O (stereo not given in full)
2,in the range around 10000 nM,CCOC(=O)N[C@@H]1C[C@H]2C(=O)N([C@H](CCC(=O)O)C(=O)NCc3ccc(Cl)c(Cl)c3)CCC(CCc3ccccc3)N2C1 (stereo not given in full)
3,< 1000 nM,CONC(=O)CC[C@H](C(=O)NCc1ccc(Cl)c(Cl)c1)N1CCC(CCc2ccccc2)N2C[C@H](N)C[C@H]2C1=O (stereo not given in full)
4,< 1000 nM,Cc1ccc(CNC(=O)[C@@H](CC(C)C)N2CCC(CCc3ccccc3)N3C[C@H](N)C[C@H]3C2=O)cc1Cl (stereo not given in full)
5,< 1000 nM,COC(=O)CC[C@H](C(=O)NCc1ccc(Cl)cn1)N1CCC(CCc2ccccc2)N2C[C@H](N)C[C@H]2C1=O (stereo not given in full)
6,< 1000 nM,COC(=O)CC[C@H](C(=O)NCc1ccc(Cl)c(Cl)c1)N1CCC(CCc2ccccc2)N2C[C@H](N)C[C@H]2C1=O (stereo not given in full)
7,< 1000 nM,NC(=O)C[C@H](C(=O)NCc1ccc(Cl)c(Cl)c1)N1CCC(CCc2ccccc2)N2C[C@H](N)C[C@H]2C1=O (stereo not given in full)
8,< 1000 nM,N[C@@H]1C[C@H]2C(=O)N([C@H](CCC(=O)O)C(=O)NCc3ccc(Cl)c(Cl)c3)CCC(COc3ccccc3F)N2C1 (stereo not given in full)
9,< 1000 nM,N[C@@H]1C[C@H]2C(=O)N([C@H](CCNS(=O)(=O)C(F)(F)F)C(=O)NCc3ccc(Cl)c(Cl)c3)CCC(CCc3ccccc3)N2C1 (stereo not given in full)
10,< 1000 nM,N[C@@H]1C[C@H]2C(=O)N([C@@H]3CCCN(S(=O)(=O)c4ccc(Cl)c(Cl)c4)C3)CCC(CCc3ccccc3)N2C1 (stereo not given in full)
11,< 1000 nM,CCOC(=O)CC[C@H](C(=O)NCc1ccc(Cl)c(Cl)c1F)N1CCC(CCc2ccccc2)N2C[C@H](N)C[C@H]2C1=O (stereo not given in full)
12,< 1000 nM,N=C(N)NCCC[C@H](C(=O)NCc1ccc(Cl)c(Cl)c1)N1CCC(CCc2ccccc2)N2C[C@H](N)C[C@H]2C1=O (stereo not given in full)
13,< 1000 nM,COc1cc(Cl)c(Cl)cc1CNC(=O)[C@@H](CCC(=O)O)N1CCC(CCc2ccccc2)N2C[C@H](N)C[C@H]2C1=O (stereo not given in full)
14,< 1000 nM,NC(=O)CC[C@H](C(=O)NCc1ccc(Cl)c(Cl)c1F)N1CCC(CCc2ccccc2)N2C[C@H](N)C[C@H]2C1=O (stereo not given in full)
15,< 1000 nM,Cc1nnc(CC[C@H](C(=O)NCc2ccc(Cl)c(Cl)c2F)N2CCC(CCc3ccccc3)N3C[C@H](N)C[C@H]3C2=O)[nH]1 (stereo not given in full)
16,< 1000 nM,CCOC(=O)CC[C@H](C(=O)NCc1ccc(Cl)c(Cl)n1)N1CCC(CCc2ccccc2)N2C[C@H](N)C[C@H]2C1=O (stereo not given in full)
17,< 1000 nM,CC(C)C[C@H](C(=O)NCc1ccc(F)c(F)c1)N1CCC(CCc2ccccc2)N2C[C@H](N)C[C@H]2C1=O (stereo not given in full)
18,in the range around 10000 nM,N[C@@H]1C[C@H]2C(=O)N([C@@H]3CCCN(S(=O)(=O)c4ccccc4)C3)CCC(CCc3ccccc3)N2C1 (stereo not given in full)
19,< 1000 nM,N[C@@H]1C[C@H]2C(=O)N([C@H](CCC(=O)O)C(=O)NCc3ccc(Cl)c(Cl)c3)CCC(COc3ccc(F)cc3)N2C1 (stereo not given in full)
20,in the range around 1000 nM,CC(C)C[C@H](C(=O)N[C@@H](C)c1ccccc1)N1CCC(CCc2ccccc2)N2C[C@H](N)C[C@H]2C1=O (stereo not given in full)
21,in the range around 1000 nM,CC(C)C[C@H](CNC(=O)c1ccc(Cl)c(Cl)c1)N1CCC(CCc2ccccc2)N2C[C@H](N)C[C@H]2C1=O (stereo not given in full)
22,< 1000 nM,N#CCC[C@H](C(=O)NCc1ccc(Cl)c(Cl)c1)N1CCC(COc2cccc(F)c2)N2C[C@H](N)C[C@H]2C1=O (stereo not given in full)

row,IC50,SMILES
1,in the range around 1000 nM,Cc1ccc(OCC2CCN([C@H](CCC(=O)O)C(=O)NCc3ccc(Cl)c(Cl)c3)C(=O)[C@@H]3C[C@@H](N)CN23)cc1 (stereo not given in full)
2,< 1000 nM,N[C@@H]1C[C@H]2C(=O)N([C@H](CCC(=O)O)C(=O)N3CCOC[C@H]3c3ccc(Cl)c(Cl)c3)CCC(CCc3ccccc3)N2C1 (stereo not given in full)
3,< 1000 nM,N[C@@H]1C[C@H]2C(=O)N([C@H](CSc3ccccc3O)C(=O)NCc3ccc(Cl)c(Cl)c3)CCC(CCc3ccccc3)N2C1 (stereo not given in full)
4,< 1000 nM,N[C@@H]1C[C@H]2C(=O)N([C@H](CCC(=O)O)C(=O)NCc3ccc(Cl)c(Cl)c3)CCC(COc3cccc(F)c3)N2C1 (stereo not given in full)
5,< 1000 nM,N[C@@H]1C[C@H]2C(=O)N([C@H]3CCN(Cc4ccc(Cl)c(Cl)c4)C3=O)CCC(CCc3ccccc3)N2C1 (stereo not given in full)
6,< 1000 nM,N#CC[C@H](C(=O)NCc1ccc(Cl)cn1)N1CCC(CCc2ccccc2)N2C[C@H](N)C[C@H]2C1=O (stereo not given in full)
7,< 1000 nM,N[C@@H]1C[C@H]2C(=O)N([C@H](CCC(=O)O)C(=O)N3CCC[C@H]3c3ccc(Cl)c(Cl)c3)CCC(CCc3ccccc3)N2C1 (stereo not given in full)
8,< 1000 nM,CCOC(=O)CC[C@H](C(=O)NCc1cc(Cl)c(Cl)cn1)N1CCC(CCc2ccccc2)N2C[C@H](N)C[C@H]2C1=O (stereo not given in full)
9,< 1000 nM,CC(C)C[C@H](C(=O)N(C)Cc1ccc(Cl)c(Cl)c1)N1CCC(CCc2ccccc2)N2C[C@H](N)C[C@H]2C1=O (stereo not given in full)
10,< 1000 nM,CCOC(=O)CC[C@H](C(=O)N1CCOC[C@H]1c1ccc(Cl)c(Cl)c1)N1CCC(CCc2ccccc2)N2C[C@H](N)C[C@H]2C1=O (stereo not given in full)
11,in the range around 10000 nM,CCOC(=O)CC[C@H](C(=O)NCc1ccc(Cl)c(Cl)c1)N1CCC(CCc2ccccc2)N2C[C@H](NC(=O)OCC)C[C@H]2C1=O (stereo not given in full)
12,< 1000 nM,N[C@@H]1C[C@H]2C(=O)N([C@H](CCC(=O)O)C(=O)NCc3cc(Cl)c(Cl)cc3F)CCC(CCc3ccccc3)N2C1 (stereo not given in full)
13,< 1000 nM,CC(=O)NCC[C@H](C(=O)NCc1ccc(Cl)c(Cl)c1)N1CCC(CCc2ccccc2)N2C[C@H](N)C[C@H]2C1=O (stereo not given in full)
14,< 1000 nM,CCOC(=O)CC[C@H](C(=O)N1CCCC[C@H]1c1ccc(Cl)c(Cl)c1)N1CCC(CCc2ccccc2)N2C[C@H](N)C[C@H]2C1=O (stereo not given in full)
15,< 1000 nM,N[C@@H]1C[C@H]2C(=O)N([C@H](CCC(=O)NO)C(=O)NCc3ccc(Cl)c(Cl)c3)CCC(COc3cccc(F)c3)N2C1 (stereo not given in full)
16,< 1000 nM,CCOc1c(CNC(=O)[C@@H](CCC(=O)O)N2CCC(CCc3ccccc3)N3C[C@H](N)C[C@H]3C2=O)ccc(Cl)c1Cl (stereo not given in full)
17,< 1000 nM,COc1c(CNC(=O)[C@@H](CCc2nnn[nH]2)N2CCC(CCc3ccccc3)N3C[C@H](N)C[C@H]3C2=O)ccc(Cl)c1Cl (stereo not given in full)
18,in the range around 1000 nM,N[C@@H]1C[C@H]2C(=O)N([C@H](CCC(=O)O)C(=O)NCc3ccc(Cl)c(Cl)c3)CCC(CCOc3ccccc3)N2C1 (stereo not given in full)
19,< 1000 nM,CS(=O)(=O)NCC[C@H](C(=O)NCc1ccc(Cl)c(Cl)c1)N1CCC(CCc2ccccc2)N2C[C@H](N)C[C@H]2C1=O (stereo not given in full)
20,< 1000 nM,N[C@@H]1C[C@H]2C(=O)N([C@@H](CCC(=O)O)C(=O)NCc3ccc(Cl)c(Cl)c3)CCC(CCc3ccccc3)N2C1 (stereo not given in full)
21,< 1000 nM,N[C@@H]1C[C@H]2C(=O)N([C@H](CS(=O)(=O)c3ccccc3O)C(=O)NCc3ccc(Cl)c(Cl)c3)CCC(CCc3ccccc3)N2C1 (stereo not given in full)
22,< 1000 nM,N[C@@H]1C[C@H]2C(=O)N([C@H](CCC(=O)O)C(=O)NCc3ccc(Cl)c(Cl)n3)CCC(CCc3ccccc3)N2C1 (stereo not given in full)

row,IC50,SMILES
1,< 1000 nM,COc1c(CNC(=O)[C@@H](CCC(N)=O)N2CCC(CCc3ccccc3)N3C[C@H](N)C[C@H]3C2=O)ccc(Cl)c1Cl (stereo not given in full)
2,in the range around 1000 nM,N#CC[C@H](C(=O)N1CCOC[C@H]1c1ccccc1)N1CCC(CCc2ccccc2)N2C[C@H](N)C[C@H]2C1=O (stereo not given in full)
3,< 1000 nM,N[C@@H]1C[C@H]2C(=O)N([C@H]3CCCN(Cc4ccc(Cl)c(Cl)c4)C3=O)CCC(CCc3ccccc3)N2C1 (stereo not given in full)
4,< 1000 nM,N[C@@H]1C[C@H]2C(=O)N([C@H](CCC(=O)NO)C(=O)NCc3ccc(Cl)c(Cl)c3)CCC(COc3ccc(F)cc3)N2C1 (stereo not given in full)
5,< 1000 nM,CC(C)OC(=O)CC[C@H](C(=O)NCc1ccc(Cl)c(Cl)c1)N1CCC(CCc2ccccc2)N2C[C@H](N)C[C@H]2C1=O (stereo not given in full)
6,< 1000 nM,N[C@@H]1C[C@H]2C(=O)N([C@H](CCC(=O)O)C(=O)NCc3ccc(Cl)cn3)CCC(CCc3ccccc3)N2C1 (stereo not given in full)
7,< 1000 nM,COc1ccc(CNC(=O)[C@@H](CC(C)C)N2CCC(CCc3ccccc3)N3C[C@H](N)C[C@H]3C2=O)cc1 (stereo not given in full)
8,< 1000 nM,Cn1c(Cl)ccc(CNC(=O)[C@@H](CCC(=O)O)N2CCC(CCc3ccccc3)N3C[C@H](N)C[C@H]3C2=O)c1=O (stereo not given in full)
9,< 1000 nM,N#CCC[C@H](C(=O)NCc1ccc(Cl)c(Cl)c1F)N1CCC(CCc2ccccc2)N2C[C@H](N)C[C@H]2C1=O (stereo not given in full)
10,in the range around 1000 nM,N#CC[C@H](C(=O)N1CCc2cc(Cl)c(Cl)cc2C1)N1CCC(CCc2ccccc2)N2C[C@H](N)C[C@H]2C1=O (stereo not given in full)
11,< 1000 nM,N#CCC[C@H](C(=O)NCc1ccc(Cl)c(Cl)[n+]1[O-])N1CCC(CCc2ccccc2)N2C[C@H](N)C[C@H]2C1=O (stereo not given in full)
12,< 1000 nM,CCN(CC)C(=O)COC(=O)CC[C@H](C(=O)NCc1ccc(Cl)c(Cl)c1)N1CCC(CCc2ccccc2)N2C[C@H](N)C[C@H]2C1=O (stereo not given in full)
13,< 1000 nM,N[C@@H]1C[C@H]2C(=O)N([C@H](CCC(=O)NO)C(=O)NCc3ccc(Cl)c(Cl)c3)CCC(CCc3ccccc3)N2C1 (stereo not given in full)
14,< 1000 nM,N#CC[C@H](C(=O)NCc1ccc(Cl)c(C(F)(F)F)c1)N1CCC(CCc2ccccc2)N2C[C@H](N)C[C@H]2C1=O (stereo not given in full)
15,< 1000 nM,CC(C)C[C@H](C(=O)NCc1ccc(C(F)(F)F)c(F)c1)N1CCC(CCc2ccccc2)N2C[C@H](N)C[C@H]2C1=O (stereo not given in full)
16,< 1000 nM,N#CC[C@H](C(=O)NCc1ccc(Cl)c(Cl)c1)N1CCC(CCc2ccccc2)N2C[C@H](N)C[C@H]2C1=O (stereo not given in full)
17,< 1000 nM,N[C@@H]1C[C@H]2C(=O)N([C@H](CCC(=O)O)C(=O)NCc3ccc(Cl)c(Cl)c3)CCC(COc3ccc(Cl)cc3)N2C1 (stereo not given in full)
18,< 1000 nM,CCOC(=O)CC[C@H](C(=O)NCc1cc(Cl)c(Cl)cc1OC)N1CCC(CCc2ccccc2)N2C[C@H](N)C[C@H]2C1=O (stereo not given in full)
19,< 1000 nM,N[C@@H]1C[C@H]2C(=O)N([C@H](CCC(=O)O)C(=O)NCc3ccc(Cl)c(Cl)c3)CCC(COc3ccccc3Cl)N2C1 (stereo not given in full)
20,in the range around 1000 nM,COc1ccc(OCC2CCN([C@H](CCC(=O)O)C(=O)NCc3ccc(Cl)c(Cl)c3)C(=O)[C@@H]3C[C@@H](N)CN23)cc1 (stereo not given in full)

row,SMILES,IC50
1,CC(C)C[C@H](C(=O)NCc1ccc(Cl)c(Cl)c1)N1CCC(C[S+]([O-])c2ccccc2)N2C[C@H](N)C[C@H]2C1=O (stereo not given in full),< 1000 nM
